# How the values were obtained:
# human endometrium = test: Six month endometriosis study: ultrasound measurements of endometrial thickness; format: in vivo; conditions: for Endometrium (mm), 1st dose: 1st dose visit; for Endometrium (mm), screening: screening (baseline)
# Source text: Women in the study were closely monitored for changes in the structure of the endometrium. […] Comparisons were made to both baseline and visit one ultrasound measurements of endometrial thickness. […]
# Serum cortisol in rats = format: in vivo, rat
# Procedure: These higher levels were in the range of 3-4 ug/dl (30-40 ng/ml).
# [1] = biological target: T1, glucocorticoid receptor (rbGR) (Oryctolagus cuniculus, UniProt P59667); test: Glucocorticoid receptor binding / anti-glucocorticoid receptor activity; set-up: species or system rabbit
# T1 construct: cytosol containing PR or GR were prepared in TEGMD buffer; from tissue; host or cells: thymus of estradiol-primed immature rabbits (cytosol)
# T1 sequence (P59667 1-772): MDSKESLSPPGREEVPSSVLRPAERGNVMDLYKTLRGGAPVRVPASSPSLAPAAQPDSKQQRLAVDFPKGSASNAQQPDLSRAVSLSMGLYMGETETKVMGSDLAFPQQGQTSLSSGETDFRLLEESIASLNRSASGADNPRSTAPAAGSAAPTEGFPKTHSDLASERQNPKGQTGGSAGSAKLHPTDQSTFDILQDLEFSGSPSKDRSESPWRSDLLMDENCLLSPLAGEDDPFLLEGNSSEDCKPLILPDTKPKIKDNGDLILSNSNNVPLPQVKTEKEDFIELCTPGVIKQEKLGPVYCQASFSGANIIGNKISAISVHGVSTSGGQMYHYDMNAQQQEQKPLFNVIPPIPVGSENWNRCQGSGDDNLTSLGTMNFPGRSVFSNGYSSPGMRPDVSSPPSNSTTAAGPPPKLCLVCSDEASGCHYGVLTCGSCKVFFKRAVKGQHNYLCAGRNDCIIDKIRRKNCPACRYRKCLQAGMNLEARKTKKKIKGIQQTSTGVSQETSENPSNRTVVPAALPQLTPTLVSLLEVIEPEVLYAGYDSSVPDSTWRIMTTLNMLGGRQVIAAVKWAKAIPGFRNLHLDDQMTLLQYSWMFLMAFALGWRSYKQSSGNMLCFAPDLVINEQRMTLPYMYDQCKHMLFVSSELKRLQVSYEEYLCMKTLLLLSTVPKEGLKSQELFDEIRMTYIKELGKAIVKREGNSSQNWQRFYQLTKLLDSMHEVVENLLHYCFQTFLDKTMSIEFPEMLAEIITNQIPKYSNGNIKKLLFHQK
# Procedure: Certain antiprogestins were tested in receptor-binding assays for their ability to bind rabbit progesterone receptor (rbPR) and glucocorticoid receptor (rbGR). […] For PR binding, the cytosol was incubated with 6 nM 1,2-[^3H]progesterone (50.0 Ci/mmole) and competitors were added at concentrations from 2 to 100 nM. For binding to GR, the cytosol was incubated with 6 nM 6,7-[^3H]-dexamethasone (40 Ci/mmol) and test compounds were added at concentrations from 20 to 100 nM. After overnight incubation at 4 C, bound and unbound [^3H] steroids were separated by addition of dextran-coated charcoal and centrifugation at 2100×g for 15 min at 4 C. Supernatants containing the [3H]-steroid receptor complexes were decanted into vials containing 4 ml Optifluor (Packard Instrument Co.), vortexed, equilibrated in a liquid scintillation counter for 30 minutes and then counted for 2 minutes. […] The standards for the PR and GR assays were unlabeled progesterone and dexamethasone, respectively.
compound,measurement,setting,value
"COCC(=O)[C@@]1(OC(C)=O)CC[C@H]2[C@@H]3CCC4=CC(=O)CCC4=C3[C@@H](c3ccc(N(C)C)cc3)C[C@@]21C [CDB-4124, 21-methoxy-17α-acetoxy-11β-(4 N,N-dimethylaminophenyl)-19-norpregna-4,9-diene-3,20-dione]",women exhibiting thickened endometrium after three months,human endometrium; 12.5 mg dose (n=4),two
same,"Endometrium (mm), 1st dose",human endometrium; 12.5 mg,8.0 mm
same,"Endometrium (mm), 3 months",human endometrium; 12.5 mg,20.33 mm
same,"Endometrium (mm), screening",human endometrium; 12.5 mg,7.5 mm
same,women exhibiting thickened endometrium after three months,human endometrium; 25 mg dose (n=4),One
same,"Endometrium (mm), 1st dose",human endometrium; 25 mg,11.7 mm
same,"Endometrium (mm), 3 months",human endometrium; 25 mg,19.6 mm
same,"Endometrium (mm), screening",human endometrium; 25 mg,8.4 mm
same,women exhibiting thickened endometrium after three months,human endometrium; 50 mg dose (n=3),none
same,"Endometrium (mm), 1st dose",human endometrium; 50 mg,10.8 mm
same,"Endometrium (mm), 3 months",human endometrium; 50 mg,7.7 mm
same,"Endometrium (mm), screening",human endometrium; 50 mg,8.0 mm
same,levels of serum cortisol versus control group,"Serum cortisol in rats; 10 mg/kg, 21 days of chronic dosing",significantly higher
same,effect of increasing doses on serum cortisol,Serum cortisol in rats; FIG. 2,dose-dependent
same,anti-glucocorticoid receptor activity / glucocorticoid receptor binding,[1],minimal anti-glucocorticoid receptor activity

# — patent US20090118253A1, “COMPOSITIONS AND METHODS FOR TREATING DYSFUNCTIONAL UTERINE BLEEDING” (REPROS THERAPEUTICS INC., priority 2007, published 2009)
